The source made the active and inactive calls. The calls are words filed in the database; no cut-off is given here.
Legend:
Type in all cases: functional
K562 = test: Growth inhibition of human K562 cells at 10 uM after 48 hrs by SRB assay relative to control; conditions: K562, 48 h, read-out: GI
MDA-MB-468 = test: Growth inhibition of human MDA-MB-468 cells at 10 uM after 48 hrs by SRB assay relative to control
UO-31 = test: Growth inhibition of human UO31 cells at 10 uM after 48 hrs by SRB assay relative to control; conditions: UO-31, 48 h, read-out: GI
NCI/ADR-RES = test: Growth inhibition of human NCI/ADR-RES cells at 10 uM after 48 hrs by SRB assay relative to control
OVCAR-4 = test: Growth inhibition of human OVCAR4 cells at 10 uM after 48 hrs by SRB assay relative to control
CAKI-1 = test: Growth inhibition of human Caki1 cells at 10 uM after 48 hrs by SRB assay relative to control
Hs-578T = test: Growth inhibition of human Hs 578T cells at 10 uM after 48 hrs by SRB assay relative to control
A549 = test: Growth inhibition of human A549 cells at 10 uM after 48 hrs by SRB assay relative to control
HCT-116 = test: Growth inhibition of human HCT116 cells at 10 uM after 48 hrs by SRB assay relative to control
RPMI-8226 = test: Growth inhibition of human RPMI8226 cells at 10 uM after 48 hrs by SRB assay relative to control
UACC-257 = test: Growth inhibition of human UACC257 cells at 10 uM after 48 hrs by SRB assay relative to control
OVCAR-8 = test: Growth inhibition of human OVCAR8 cells at 10 uM after 48 hrs by SRB assay relative to control
CCRF-CEM = test: Growth inhibition of human CCRF-CEM cells at 10 uM after 48 hrs by SRB assay relative to control; conditions: read-out: GI
SK-OV-3 = test: Growth inhibition of human SKOV3 cells at 10 uM after 48 hrs by SRB assay relative to control
MOLT-4 = test: Growth inhibition of human MOLT4 cells at 10 uM after 48 hrs by SRB assay relative to control
SNB-75 = test: Growth inhibition of human SNB75 cells at 10 uM after 48 hrs by SRB assay relative to control
HOP-92 = test: Growth inhibition of human HOP92 cells at 10 uM after 48 hrs by SRB assay relative to control; conditions: HOP-92, 48 h, read-out: GI
HT-29 = test: Growth inhibition of human HT-29 cells at 10 uM after 48 hrs by SRB assay relative to control
RXF 393 = test: Growth inhibition of human RXF393 cells at 10 uM after 48 hrs by SRB assay relative to control
Malme-3M = test: Growth inhibition of human MALME-3M cells at 10 uM after 48 hrs by SRB assay relative to control
HL-60 = test: Growth inhibition of human HL60 cells at 10 uM after 48 hrs by SRB assay relative to control
NCI-H226 = test: Growth inhibition of human NCI-H226 cells at 10 uM after 48 hrs by SRB assay relative to control
NCI-H522 = test: Growth inhibition of human NCI-H522 cells at 10 uM after 48 hrs by SRB assay relative to control; conditions: NCI-H522, 48 h, read-out: GI
MCF7 = test: Growth inhibition of human MCF7 cells at 10 uM after 48 hrs by SRB assay relative to control
UACC-62 = test: Growth inhibition of human UACC62 cells at 10 uM after 48 hrs by SRB assay relative to control
PC-3 = test: Growth inhibition of human PC3 cells at 10 uM after 48 hrs by SRB assay relative to control; conditions: PC-3, 48 h, read-out: GI
HOP-62 = test: Growth inhibition of human HOP62 cells at 10 uM after 48 hrs by SRB assay relative to control
LOX IMVI = test: Growth inhibition of human LOXIMVI cells at 10 uM after 48 hrs by SRB assay relative to control; conditions: read-out: GI
SR = test: Growth inhibition of human SR cells at 10 uM after 48 hrs by SRB assay relative to control; conditions: read-out: GI
SK-MEL-2 = test: Growth inhibition of human SK-MEL-2 cells at 10 uM after 48 hrs by SRB assay relative to control; conditions: SK-MEL-2, 48 h, read-out: GI
SK-MEL-5 = test: Growth inhibition of human SK-MEL-5 cells at 10 uM after 48 hrs by SRB assay relative to control
NCI-H23 = test: Growth inhibition of human NCI-H23 cells at 10 uM after 48 hrs by SRB assay relative to control; conditions: NCI-H23, 48 h, read-out: GI
A498 = test: Growth inhibition of human A498 cells at 10 uM after 48 hrs by SRB assay relative to control
SF-268 = test: Growth inhibition of human SF268 cells at 10 uM after 48 hrs by SRB assay relative to control
NCI-H322M = test: Growth inhibition of human NCI-H322M cells at 10 uM after 48 hrs by SRB assay relative to control
KM12 = test: Growth inhibition of human KM12 cells at 10 uM after 48 hrs by SRB assay relative to control
U-251 = test: Growth inhibition of human U251 cells at 10 uM after 48 hrs by SRB assay relative to control; conditions: U-251, 48 h, read-out: GI
786-0 = test: Growth inhibition of human 786-0 cells at 10 uM after 48 hrs by SRB assay relative to control
SNB-19 = test: Growth inhibition of human SNB19 cells at 10 uM after 48 hrs by SRB assay relative to control
OVCAR-3 = test: Growth inhibition of human OVCAR3 cells at 10 uM after 48 hrs by SRB assay relative to control

Compound | inhibition of growth at 10 µM (K562) [%] | growth inhibition (GI) (MDA-MB-468) | inhibition of growth at 10 µM (UO-31) [%] | growth inhibition (GI) (OVCAR-4) | growth inhibition (GI) (HCT-116) | growth inhibition (GI) (OVCAR-8) | inhibition of growth at 10 µM (CCRF-CEM) [%] | inhibition of growth at 10 µM (HOP-92) [%] | growth inhibition (GI) (HT-29) | growth inhibition (GI) (RXF 393) | growth inhibition (GI) (HL-60) | inhibition of growth at 10 µM (NCI-H522) [%] | inhibition of growth at 10 µM (PC-3) [%] | inhibition of growth at 10 µM (LOX IMVI) [%] | inhibition of growth at 10 µM (SR) [%] | inhibition of growth at 10 µM (SK-MEL-2) [%] | inhibition of growth at 10 µM (NCI-H23) [%] | growth inhibition (GI) (NCI-H322M) | growth inhibition (GI) (KM12) | inhibition of growth at 10 µM (U-251) [%] | further results
COc1ccc(Cc2nnc3sc(SC)nn23)cc1 | 3.47 | inactive | 12.7 | inactive | inactive | inactive | 5.04 | 13.4 | inactive | inactive | inactive | 12.2 | 2.19 | 2.73 | 7.53 | 14.7 | 5.4 | inactive | inactive | 3.17 | growth inhibition (GI) (NCI/ADR-RES): inactive; inhibition of growth at 10 µM (CAKI-1; CAKI-1, 48 h, read-out: GI): 4.37%; growth inhibition (GI) (Hs-578T): inactive; inhibition of growth at 10 µM (A549; A549, 48 h, read-out: GI): 4.46%; inhibition of growth at 10 µM (RPMI-8226; RPMI-8226, 48 h, read-out: GI): 1.21%; inhibition of growth at 10 µM (UACC-257; UACC-257, 48 h, read-out: GI): 9.07%; growth inhibition (GI) (SK-OV-3): inactive; growth inhibition (GI) (MOLT-4): inactive; inhibition of growth at 10 µM (SNB-75; SNB-75, 48 h, read-out: GI): 8.34%; growth inhibition (GI) (Malme-3M): inactive; inhibition of growth at 10 µM (NCI-H226; NCI-H226, 48 h, read-out: GI): 4.76%; inhibition of growth at 10 µM (MCF7; MCF7, 48 h, read-out: GI): 8.21%; growth inhibition (GI) (UACC-62): inactive; growth inhibition (GI) (HOP-62): inactive; growth inhibition (GI) (SK-MEL-5): inactive; inhibition of growth at 10 µM (A498; A498, 48 h, read-out: GI): 3.37%; inhibition of growth at 10 µM (SF-268; SF-268, 48 h, read-out: GI): 2.15%; growth inhibition (GI) (786-0): inactive; growth inhibition (GI) (SNB-19): inactive; growth inhibition (GI) (OVCAR-3): inactive
COc1ccc(Cc2nnc(SCC(=O)Nc3ccc(C)cc3)n2-c2ccccc2)cc1 | 9.31 | inactive | 11.4 | inactive | inactive | inactive | 8.16 | 8.7 | inactive | inactive | inactive | 19 | 16.3 | 2.2 | 17 | 17.3 | 5.6 | inactive | inactive | 1.62 | inhibition of growth at 10 µM (NCI/ADR-RES; read-out: GI): 6.11%; growth inhibition (GI) (CAKI-1): inactive; inhibition of growth at 10 µM (Hs-578T; read-out: GI): 1.15%; growth inhibition (GI) (A549): inactive; growth inhibition (GI) (RPMI-8226): inactive; growth inhibition (GI) (UACC-257): inactive; inhibition of growth at 10 µM (SK-OV-3; SK-OV-3, 48 h, read-out: GI): 7.38%; inhibition of growth at 10 µM (MOLT-4; MOLT-4, 48 h, read-out: GI): 14.9%; growth inhibition (GI) (SNB-75): inactive; inhibition of growth at 10 µM (Malme-3M; read-out: GI): 1.56%; growth inhibition (GI) (NCI-H226): inactive; growth inhibition (GI) (MCF7): inactive; inhibition of growth at 10 µM (UACC-62; UACC-62, 48 h, read-out: GI): 2.9%; inhibition of growth at 10 µM (HOP-62; HOP-62, 48 h, read-out: GI): 6.8%; inhibition of growth at 10 µM (SK-MEL-5; SK-MEL-5, 48 h, read-out: GI): 1.4%; growth inhibition (GI) (A498): inactive; growth inhibition (GI) (SF-268): inactive; growth inhibition (GI) (786-0): inactive; growth inhibition (GI) (SNB-19): inactive; growth inhibition (GI) (OVCAR-3): inactive

Source: ChEMBL document CHEMBL4190322, “Structure-based development of novel triazoles and related thiazolotriazoles as anticancer agents and Cdc25A/B phosphatase inhibitors. Synthesis, in vitro biological evaluation, molecular docking and in silico ADME-T studies” (Eur J Med Chem, 2017)
